Calls of active or inactive are those of the source. The rule behind the calls is not given here.
Each compound was assayed against T1, Serine/threonine-protein kinase TBK1 (Homo sapiens, UniProt Q9UHD2) (assay: Navigating the Kinome. Panel member name: TBK1).
T1 sequence (Q9UHD2 whole entry): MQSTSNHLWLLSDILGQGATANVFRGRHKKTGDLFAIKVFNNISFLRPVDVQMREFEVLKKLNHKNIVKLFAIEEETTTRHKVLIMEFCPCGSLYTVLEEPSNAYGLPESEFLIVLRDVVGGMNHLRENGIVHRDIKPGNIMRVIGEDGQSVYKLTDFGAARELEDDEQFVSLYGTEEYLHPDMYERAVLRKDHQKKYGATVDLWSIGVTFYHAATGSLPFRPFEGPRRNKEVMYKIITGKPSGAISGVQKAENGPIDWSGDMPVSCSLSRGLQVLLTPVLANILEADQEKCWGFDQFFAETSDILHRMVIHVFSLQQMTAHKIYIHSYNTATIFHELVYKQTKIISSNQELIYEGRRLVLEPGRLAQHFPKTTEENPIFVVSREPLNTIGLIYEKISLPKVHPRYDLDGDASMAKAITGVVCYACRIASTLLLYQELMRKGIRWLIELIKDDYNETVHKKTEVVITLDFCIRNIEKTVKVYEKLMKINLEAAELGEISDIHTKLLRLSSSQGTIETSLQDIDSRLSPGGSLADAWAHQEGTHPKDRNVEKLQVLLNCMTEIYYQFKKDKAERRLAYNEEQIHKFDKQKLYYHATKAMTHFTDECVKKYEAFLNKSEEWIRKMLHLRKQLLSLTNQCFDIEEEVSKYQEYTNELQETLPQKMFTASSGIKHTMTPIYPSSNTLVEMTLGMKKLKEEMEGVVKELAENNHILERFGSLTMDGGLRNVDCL
Assay type: functional

Structure (SMILES)	Ki
O=C1Nc2cc(-c3ccc(O)cc3)ccc2C1=Cc1ccc[nH]1	1.26 µM (active)
NC(COc1cncc(-c2ccc3c(c2)C(=Cc2ccc[nH]2)C(=O)N3)c1)Cc1ccccc1 (stereo not drawn)	0.00794 µM (active)
O=C1Cc2cc(-c3ccccc3)cnc2N1	79.4 µM (active)

The compounds below were run against ALK tyrosine kinase receptor (Homo sapiens, UniProt Q9UM73).
Assay type: functional

Sequence of ALK tyrosine kinase receptor (Q9UM73 whole entry): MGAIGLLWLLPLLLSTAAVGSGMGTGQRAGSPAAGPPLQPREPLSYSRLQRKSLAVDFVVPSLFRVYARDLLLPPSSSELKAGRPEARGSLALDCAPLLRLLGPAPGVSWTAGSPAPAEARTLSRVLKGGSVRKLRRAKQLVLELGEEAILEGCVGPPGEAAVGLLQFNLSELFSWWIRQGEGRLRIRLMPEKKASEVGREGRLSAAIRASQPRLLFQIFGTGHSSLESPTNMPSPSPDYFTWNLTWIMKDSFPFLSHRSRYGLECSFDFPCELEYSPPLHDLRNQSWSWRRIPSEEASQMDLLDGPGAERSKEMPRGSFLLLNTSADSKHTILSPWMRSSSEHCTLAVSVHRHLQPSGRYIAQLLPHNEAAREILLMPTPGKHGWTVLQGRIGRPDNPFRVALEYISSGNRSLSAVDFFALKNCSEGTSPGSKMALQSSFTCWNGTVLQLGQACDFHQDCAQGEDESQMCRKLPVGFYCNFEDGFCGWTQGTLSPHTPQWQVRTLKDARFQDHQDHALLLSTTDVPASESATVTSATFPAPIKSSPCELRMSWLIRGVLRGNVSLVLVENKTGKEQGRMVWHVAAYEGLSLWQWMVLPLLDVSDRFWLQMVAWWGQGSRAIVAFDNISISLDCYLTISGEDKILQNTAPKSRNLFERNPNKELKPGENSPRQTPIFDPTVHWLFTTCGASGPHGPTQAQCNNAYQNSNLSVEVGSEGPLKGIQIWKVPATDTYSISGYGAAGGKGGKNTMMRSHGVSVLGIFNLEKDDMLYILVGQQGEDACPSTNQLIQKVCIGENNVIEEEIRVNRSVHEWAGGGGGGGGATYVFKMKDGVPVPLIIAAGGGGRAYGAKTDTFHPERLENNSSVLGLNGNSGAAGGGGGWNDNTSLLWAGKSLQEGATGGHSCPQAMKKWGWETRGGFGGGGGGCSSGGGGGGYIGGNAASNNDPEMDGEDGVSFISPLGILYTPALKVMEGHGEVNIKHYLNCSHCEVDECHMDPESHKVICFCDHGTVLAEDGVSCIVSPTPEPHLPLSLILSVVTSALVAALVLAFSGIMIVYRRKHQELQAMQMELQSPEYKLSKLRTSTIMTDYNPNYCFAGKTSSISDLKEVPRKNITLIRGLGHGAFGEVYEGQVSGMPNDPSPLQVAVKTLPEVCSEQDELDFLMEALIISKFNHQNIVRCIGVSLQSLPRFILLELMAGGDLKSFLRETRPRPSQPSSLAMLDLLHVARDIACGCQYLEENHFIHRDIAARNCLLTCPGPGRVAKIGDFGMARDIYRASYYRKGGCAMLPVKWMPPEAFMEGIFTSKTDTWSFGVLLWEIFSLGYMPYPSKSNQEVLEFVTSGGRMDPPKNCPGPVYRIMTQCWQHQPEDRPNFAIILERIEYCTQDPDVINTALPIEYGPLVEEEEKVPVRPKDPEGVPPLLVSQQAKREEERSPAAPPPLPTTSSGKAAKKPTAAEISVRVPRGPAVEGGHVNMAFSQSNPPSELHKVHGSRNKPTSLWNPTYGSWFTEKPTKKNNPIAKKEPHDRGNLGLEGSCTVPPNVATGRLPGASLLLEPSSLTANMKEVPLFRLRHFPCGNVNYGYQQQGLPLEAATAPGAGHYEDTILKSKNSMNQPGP

Structure (SMILES)	Ki
O=C1Nc2cc(-c3ccc(O)cc3)ccc2C1=Cc1ccc[nH]1	0.0126 µM (active)
NC(COc1cncc(-c2ccc3c(c2)C(=Cc2ccc[nH]2)C(=O)N3)c1)Cc1ccccc1 (stereo not drawn)	0.2 µM (active)
O=C1Cc2cc(-c3ccccc3)cnc2N1	63.1 µM (active)

Each compound was assayed against T2, Serine/threonine-protein kinase D3 (Homo sapiens, UniProt O94806).
T2 sequence (O94806 whole entry): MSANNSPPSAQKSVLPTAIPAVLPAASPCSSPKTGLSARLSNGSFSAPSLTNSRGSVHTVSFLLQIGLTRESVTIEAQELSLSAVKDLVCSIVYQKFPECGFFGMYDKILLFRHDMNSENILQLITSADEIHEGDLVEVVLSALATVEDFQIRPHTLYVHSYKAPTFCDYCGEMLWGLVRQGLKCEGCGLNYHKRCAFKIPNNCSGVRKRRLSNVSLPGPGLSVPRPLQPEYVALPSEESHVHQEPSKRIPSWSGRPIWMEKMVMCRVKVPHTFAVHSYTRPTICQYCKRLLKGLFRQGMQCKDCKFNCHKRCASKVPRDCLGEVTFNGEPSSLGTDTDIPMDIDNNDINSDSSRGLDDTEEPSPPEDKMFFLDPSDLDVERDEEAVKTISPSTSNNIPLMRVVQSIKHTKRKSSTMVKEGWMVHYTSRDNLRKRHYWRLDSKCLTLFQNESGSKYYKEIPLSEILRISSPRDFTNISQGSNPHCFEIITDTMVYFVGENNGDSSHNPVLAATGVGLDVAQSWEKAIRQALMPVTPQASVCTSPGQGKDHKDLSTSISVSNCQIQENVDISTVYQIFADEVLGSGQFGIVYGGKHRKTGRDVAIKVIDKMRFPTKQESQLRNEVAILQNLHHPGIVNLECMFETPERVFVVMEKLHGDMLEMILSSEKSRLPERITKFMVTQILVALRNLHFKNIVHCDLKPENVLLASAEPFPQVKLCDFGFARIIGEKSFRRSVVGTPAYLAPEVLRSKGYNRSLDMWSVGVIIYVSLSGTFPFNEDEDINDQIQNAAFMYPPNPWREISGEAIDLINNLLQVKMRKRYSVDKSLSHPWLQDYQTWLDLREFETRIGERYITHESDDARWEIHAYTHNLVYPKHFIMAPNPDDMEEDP
Assay type: functional

Structure (SMILES)	Ki
O=C1Nc2cc(-c3ccc(O)cc3)ccc2C1=Cc1ccc[nH]1	> 3.98 µM (inactive)
NC(COc1cncc(-c2ccc3c(c2)C(=Cc2ccc[nH]2)C(=O)N3)c1)Cc1ccccc1 (stereo not drawn)	0.0158 µM (active)
O=C1Cc2cc(-c3ccccc3)cnc2N1	63.1 µM (active)

Each compound was assayed against Vascular endothelial growth factor receptor 2 (Homo sapiens, UniProt P35968).
Assay type: functional

Sequence of Vascular endothelial growth factor receptor 2 (P35968 whole entry): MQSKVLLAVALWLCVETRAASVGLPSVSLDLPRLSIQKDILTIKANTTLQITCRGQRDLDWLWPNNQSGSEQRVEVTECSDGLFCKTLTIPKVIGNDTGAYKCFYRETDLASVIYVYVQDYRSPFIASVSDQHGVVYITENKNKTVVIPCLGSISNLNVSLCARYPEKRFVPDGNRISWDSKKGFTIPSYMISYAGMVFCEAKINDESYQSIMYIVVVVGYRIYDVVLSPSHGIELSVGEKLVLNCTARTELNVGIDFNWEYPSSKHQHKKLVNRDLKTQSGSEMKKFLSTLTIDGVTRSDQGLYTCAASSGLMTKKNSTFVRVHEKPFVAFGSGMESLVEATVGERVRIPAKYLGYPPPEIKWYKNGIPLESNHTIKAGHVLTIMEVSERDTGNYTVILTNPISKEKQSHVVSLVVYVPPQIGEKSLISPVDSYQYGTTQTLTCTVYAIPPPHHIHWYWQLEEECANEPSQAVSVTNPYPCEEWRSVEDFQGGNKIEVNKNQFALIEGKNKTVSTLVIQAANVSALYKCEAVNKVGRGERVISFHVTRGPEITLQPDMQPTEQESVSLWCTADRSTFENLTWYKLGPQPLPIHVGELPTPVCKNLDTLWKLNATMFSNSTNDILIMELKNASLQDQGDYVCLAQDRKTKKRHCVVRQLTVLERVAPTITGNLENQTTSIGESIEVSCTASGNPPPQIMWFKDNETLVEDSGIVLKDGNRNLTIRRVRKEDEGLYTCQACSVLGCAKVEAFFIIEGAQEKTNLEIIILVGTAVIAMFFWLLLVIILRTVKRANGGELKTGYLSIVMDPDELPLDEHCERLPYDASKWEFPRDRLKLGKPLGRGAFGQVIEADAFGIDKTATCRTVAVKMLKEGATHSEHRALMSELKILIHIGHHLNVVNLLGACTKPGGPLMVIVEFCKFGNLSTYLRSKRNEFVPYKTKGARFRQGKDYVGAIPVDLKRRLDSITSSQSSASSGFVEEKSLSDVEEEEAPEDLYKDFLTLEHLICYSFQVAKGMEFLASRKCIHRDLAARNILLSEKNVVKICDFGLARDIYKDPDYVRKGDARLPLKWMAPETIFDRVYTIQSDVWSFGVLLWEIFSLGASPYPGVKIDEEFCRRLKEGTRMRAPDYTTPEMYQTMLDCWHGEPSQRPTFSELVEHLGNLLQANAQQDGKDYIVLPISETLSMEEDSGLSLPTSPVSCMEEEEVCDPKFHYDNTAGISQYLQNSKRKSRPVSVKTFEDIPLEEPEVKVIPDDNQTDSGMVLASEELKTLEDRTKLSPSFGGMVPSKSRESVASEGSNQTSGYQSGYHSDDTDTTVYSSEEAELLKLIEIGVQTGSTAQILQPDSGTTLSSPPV

Structure (SMILES)	Ki
O=C1Nc2cc(-c3ccc(O)cc3)ccc2C1=Cc1ccc[nH]1	0.0126 µM (active)
NC(COc1cncc(-c2ccc3c(c2)C(=Cc2ccc[nH]2)C(=O)N3)c1)Cc1ccccc1 (stereo not drawn)	0.000631 µM (active)
O=C1Cc2cc(-c3ccccc3)cnc2N1	31.6 µM (active)

The compounds below were run against Aurora kinase B (Homo sapiens, UniProt Q96GD4).
Assay type: functional

Sequence of Aurora kinase B (Q96GD4 whole entry): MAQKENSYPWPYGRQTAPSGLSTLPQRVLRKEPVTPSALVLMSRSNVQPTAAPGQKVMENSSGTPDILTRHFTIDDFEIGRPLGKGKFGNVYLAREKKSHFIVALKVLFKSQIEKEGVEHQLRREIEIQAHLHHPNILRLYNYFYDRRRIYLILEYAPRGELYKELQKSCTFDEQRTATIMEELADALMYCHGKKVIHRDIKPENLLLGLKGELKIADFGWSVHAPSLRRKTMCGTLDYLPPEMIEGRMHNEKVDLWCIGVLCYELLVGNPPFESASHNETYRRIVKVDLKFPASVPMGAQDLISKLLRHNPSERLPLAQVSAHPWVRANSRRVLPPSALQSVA

Structure (SMILES)	Ki
O=C1Nc2cc(-c3ccc(O)cc3)ccc2C1=Cc1ccc[nH]1	0.02 µM (active)
NC(COc1cncc(-c2ccc3c(c2)C(=Cc2ccc[nH]2)C(=O)N3)c1)Cc1ccccc1 (stereo not drawn)	0.0398 µM (active)
O=C1Cc2cc(-c3ccccc3)cnc2N1	31.6 µM (active)

The compounds below were run against T3, Serine/threonine-protein kinase Nek2 (Homo sapiens, UniProt P51955).
T3 sequence (P51955 whole entry): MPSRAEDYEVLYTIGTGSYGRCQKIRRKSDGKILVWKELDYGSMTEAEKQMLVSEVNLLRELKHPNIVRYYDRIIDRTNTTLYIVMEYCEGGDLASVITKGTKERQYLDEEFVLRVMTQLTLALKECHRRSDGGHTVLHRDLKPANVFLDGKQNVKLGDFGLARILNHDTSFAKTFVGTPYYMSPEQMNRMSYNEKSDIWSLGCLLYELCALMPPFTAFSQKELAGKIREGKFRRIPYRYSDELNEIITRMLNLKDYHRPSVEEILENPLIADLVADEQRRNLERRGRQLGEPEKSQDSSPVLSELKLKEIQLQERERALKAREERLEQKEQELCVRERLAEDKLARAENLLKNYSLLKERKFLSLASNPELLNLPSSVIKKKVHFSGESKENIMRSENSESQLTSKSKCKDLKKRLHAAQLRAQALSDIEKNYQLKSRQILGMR
Assay type: functional

Structure (SMILES)	Ki
O=C1Nc2cc(-c3ccc(O)cc3)ccc2C1=Cc1ccc[nH]1	> 3.16 µM (inactive)
NC(COc1cncc(-c2ccc3c(c2)C(=Cc2ccc[nH]2)C(=O)N3)c1)Cc1ccccc1 (stereo not drawn)	1.26 µM (active)
O=C1Cc2cc(-c3ccccc3)cnc2N1	39.8 µM (active)

Reference: ChEMBL document CHEMBL1201862, “PubChem BioAssay data set” (2004)
